# Source: patent publication US8987195B2 (priority 2012, dated 2015)
# Like-named read-outs stand apart in the source and are kept apart here.
# How the values were obtained:
# HCV genotype 1b replicon = test: HCV replicon assay, genotype 1b replicon EC50; format: cell-based, Hepatitis C virus; details: Hepatitis C virus, read-out: EC50 [gt-1b]
# Method in brief: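 Stable neomycin phosphotransferase-encoding replicon cell lines, kept under G418 selection beforehand, were plated with a compound dilution series without G418 and incubated 24-48 hours. Replicon RNA was then quantified, or luciferase activity read. EC50 was calculated as percent of DMSO control by four-parameter fit.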
# [1] = molecular target: HCV NS3/4A protease genotype 1b (Hepatitis C virus genotype 1b, UniProt P26663); test: HCV NS3/4A protease time-resolved fluorescence (TRF) assay, Ki against genotype 1b; format: biochemical
# Method in brief: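 Ki values come from IC50 fits corrected for substrate concentration and KM. The time-resolved fluorescence protease reaction used 25 nM peptide substrate, 2.5 h, room temperature, pH 7.5 HEPES buffer, after 30 min enzyme–inhibitor preincubation.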
# [2] = IC50 [gt-1b] (nM), NS3/4A genotype 1b, enzyme 0.2 nM
# [3] = IC50 [gt-1b] (nM), NS3/4A genotype 1b, enzyme 0.2 nM, K+ salt
# Chain of HCV NS3/4A protease genotype 1b (P26663 1027-1657): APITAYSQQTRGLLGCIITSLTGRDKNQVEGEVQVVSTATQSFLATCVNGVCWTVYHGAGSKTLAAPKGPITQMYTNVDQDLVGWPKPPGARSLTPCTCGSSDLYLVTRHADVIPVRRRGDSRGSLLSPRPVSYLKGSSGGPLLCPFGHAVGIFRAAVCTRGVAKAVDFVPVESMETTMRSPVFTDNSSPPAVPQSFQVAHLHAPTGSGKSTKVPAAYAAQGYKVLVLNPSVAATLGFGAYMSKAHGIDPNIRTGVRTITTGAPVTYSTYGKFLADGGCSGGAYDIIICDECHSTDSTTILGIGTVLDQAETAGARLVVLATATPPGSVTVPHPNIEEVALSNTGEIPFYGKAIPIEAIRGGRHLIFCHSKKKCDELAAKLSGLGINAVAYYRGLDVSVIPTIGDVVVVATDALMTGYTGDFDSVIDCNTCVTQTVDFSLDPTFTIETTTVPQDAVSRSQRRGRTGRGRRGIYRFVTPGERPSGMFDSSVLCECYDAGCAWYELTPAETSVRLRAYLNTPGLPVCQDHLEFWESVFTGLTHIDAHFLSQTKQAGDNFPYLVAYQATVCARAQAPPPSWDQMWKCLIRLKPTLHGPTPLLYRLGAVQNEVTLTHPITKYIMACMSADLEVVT
# Chain of HCV NS3/4A protease genotype 1b (P26663 1658-1711): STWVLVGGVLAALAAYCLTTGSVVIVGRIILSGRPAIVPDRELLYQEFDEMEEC
Compound,EC50 (HCV genotype 1b replicon; genotype 1b replicon) [nM],"IC50 [1, 2] [nM]",other results
"CC(C)NC(=O)N[C@H]1CCCCC/C=C\[C@@H]2C[C@@]2(C(=O)NS(=O)(=O)C2(C)CC2)NC(=O)[C@@H]2C[C@]3(CCc4c(c(-c5cccc(F)c5)nc5ccccc45)O3)CN2C1=O [Example 85, (2R,6S,12Z,13aS,14aR,16aS)-5′-(3-fluorophenyl)-N-[(1-methylcyclopropyl)sulfonyl]-5,16-dioxo-6-[(propan-2-ylcarbamoyl)amino]-1,1′,2′,6,7,8,9,10,11,13a,14,15,16,16a-tetradecahydrospiro[cyclopropa[e]pyrrolo[1,2-a][1,4]diazacyclopentadecine-2,3′-pyrano[2,3-c]quinoline]-14a(5R)-carboxamide]",1.31,0.013,–
"Cc1nc2ccccc2c2c1O[C@@]1(C[C@H]3C(=O)N[C@]4(C(=O)NS(=O)(=O)C5(C)CC5)C[C@H]4/C=C\CCCCC[C@H](NC(=O)OCC(C)C)C(=O)N3C1)CC2(F)F [Example 106, 2-methylpropyl [(2S,6S,12Z,13aS,14aR,16aS)-1′,1′-difluoro-5′-methyl-14a-{[(1-methylcyclopropyl)sulfonyl]carbamoyl}-5,16-dioxo-1,1′,2′,5,6,7,8,9,10,11,13a,14,14a,15,16,16a-hexadecahydrospiro[cyclopropa[e]pyrrolo[1,2-a][1,4]diazacyclopentadecine-2,3′-pyrano[2,3-c]quinolin]-6-yl]carbamate]",3.21,0.048,–
"COc1ccc2nc(CC(F)(F)F)c3c(c2c1)CC[C@]1(C[C@H]2C(=O)N[C@]4(C(=O)NS(=O)(=O)C5(C)CC5)C[C@H]4/C=C\CCCCC[C@H](NC(=O)OCC(C)(C)C)C(=O)N2C1)O3 [Example 48, Neopentyl((2R,6S,13aS,14aR,16aS,Z)-9′-methoxy-14a-(((1-methylcyclopropyl)sulfonyl)carbamoyl)-5,16-dioxo-5′-(2,2,2-trifluoroethyl)-1′,2′,3,5,6,7,8,9,10,11, 13a,14,14a,15,16,16a-hexadecahydro-1H-spiro[cyclopropa[e]pyrrolo[1,2-a][1,4]diazacyclopentadecine-2,3′-pyrano[2,3-c]quinolin]-6-yl)carbamate]",1.1,0.006,–
"Cc1nc2ccccc2c2c1O[C@]1(CC2)C[C@H]2C(=O)N[C@]3(C(=O)NS(=O)(=O)C4(C)CC4)C[C@H]3/C=C\CCCCC[C@H](NC(=O)O[C@@H]3C[C@H]4CC[C@@H]3C4)C(=O)N2C1 [Example 179, (1R,2R,4S)-bicyclo[2.2.1]hept-2-yl [(2R,6S,12Z,13aS,14aR,16aS)-5′-methyl-14a-{[(1-methylcyclopropyl)sulfonyl]carbamoyl}-5,16-dioxo-1,1′,2′,5,6,7,8,9,10,11,13a,14,14a,15,16,16a-hexadecahydrospiro[cyclopropa[e]pyrrolo[1,2-a][1,4]diazacyclopentadecine-2,3′-pyrano[2,3-c]quinolin]-6-yl]carbamate]",0.2,0.012,–
"COc1ccc2nc(C3CC3)c3c(c2c1)C(F)(F)C[C@]1(C[C@H]2C(=O)N[C@]4(C(=O)NS(=O)(=O)C5(C)CC5)C[C@H]4/C=C\CCCCC[C@H](NC(=O)O[C@H](C)C(C)C)C(=O)N2C1)O3 [Example 249, (2R)-3-methylbutan-2-yl [(2S,6S,12Z,13aS,14aR,16aS)-5′-cyclopropyl-1′,1′-difluoro-9′-methoxy-14a-{[(1-methylcyclopropyl)sulfonyl]carbamoyl}-5,16-dioxo-1,1′,2′,5,6,7,8,9,10,11,13a,14,14a,15,16,16a-hexadecahydrospiro[cyclopropa[e]pyrrolo[1,2-a][1,4]diazacyclopentadecine-2,3′-pyrano[2,3-c]quinolin]-6-yl]carbamate]",–,–,"EC50 (HCV genotype 1b replicon; genotype 1b replicon, K+ salt): 14.6 nM; IC50 [1, 3]: 0.02 nM"
"COc1ccc2c3c(c(C4CC4)nc2c1)O[C@]1(CC3)C[C@H]2C(=O)N[C@]3(C(=O)NS(=O)(=O)C4(C)CC4)C[C@H]3/C=C\CCCCC[C@H](NC(=O)CC(C)(C)C)C(=O)N2C1 (single isomer, unassigned) [Example 279]",–,–,"EC50 (HCV genotype 1b replicon; genotype 1b replicon, HCOOH salt): 22.3 nM; IC50 ([1]; IC50 [gt-1b] (nM), NS3/4A genotype 1b, enzyme 0.2 nM, HCOOH salt): 0.051 nM"
"COc1cccc(N[C@H]2CCCCC/C=C\[C@@H]3C[C@@]3(C(=O)NS(=O)(=O)C3(C)CC3)NC(=O)[C@@H]3C[C@]4(CCc5c(c(C)nc6ccccc56)O4)CN3C2=O)c1 [Example 341, (2R,6S,12Z,13aS,14aR,16aS)-6-[(3-methoxyphenyl)amino]-5′-methyl-N-[(1-methylcyclopropyl)sulfonyl]-5,16-dioxo-1,1′,2′,6,7,8,9,10,11,13a,14,15,16,16a-tetradecahydrospiro[cyclopropa[e]pyrrolo[1,2-a][1,4]diazacyclopentadecine-2,3′-pyrano[2,3-c]quinoline]-14a(5R)-carboxamide]",1.04,0.172,–
"Cc1nc2ccc(OC(F)(F)F)cc2c2c1O[C@]1(CC2)C[C@H]2C(=O)N[C@]3(C(=O)NS(=O)(=O)C4(C)CC4)C[C@H]3/C=C\CCCCC[C@H](NC(=O)OC(C)(C)CCS(=O)(=O)C(C)C)C(=O)N2C1 [Example 305, 2-methyl-4-(propan-2-ylsulfonyl)butan-2-yl [(2R,6S,12Z,13aS,14aR,16aS)-5′-methyl-14a-{[(1-methylcyclopropyl)sulfonyl]carbamoyl}-5,16-dioxo-9′-(trifluoromethoxy)-1,1′,2′,5,6,7,8,9,10,11,13a,14,14a,15,16,16a-hexadecahydrospiro[cyclopropa[e]pyrrolo[1,2-a][1,4]diazacyclopentadecine-2,3′-pyrano[2,3-c]quinolin]-6-yl]carbamate]",35.2,0.029,–
"Cc1nc2ccccc2c2c1O[C@]1(CC2)C[C@H]2C(=O)N[C@]3(C(=O)NS(=O)(=O)C4(C)CC4)C[C@H]3/C=C\CCCCC[C@H](NC(=O)OC(C(F)(F)F)C(F)(F)F)C(=O)N2C1 [Example 258, 1,1,1,3,3,3-hexafluoropropan-2-yl [(2R,6S,12Z,13aS,14aR,16aS)-5′-methyl-14a-{[(1-methylcyclopropyl)sulfonyl]carbamoyl}-5,16-dioxo-1,1′,2′,5,6,7,8,9,10,11,13a,14,14a,15,16,16a-hexadecahydrospiro[cyclopropa[e]pyrrolo[1,2-a][1,4]diazacyclopentadecine-2,3′-pyrano[2,3-c]quinolin]-6-yl]carbamate]",717,0.022,–
"Cc1nc2ccc(OC(F)F)cc2c2c1O[C@]1(CC2)C[C@H]2C(=O)N[C@]3(C(=O)NS(=O)(=O)C4(C)CC4)C[C@H]3/C=C\CCCCC[C@H](NC(=O)OC(C)(C)C(F)(F)F)C(=O)N2C1 [Example 310, 1,1,1-trifluoro-2-methylpropan-2-yl [(2R,6S,12Z,13aS,14aR,16aS)-9′-(difluoromethoxy)-5′-methyl-14a-{[(1-methylcyclopropyl)sulfonyl]carbamoyl}-5,16-dioxo-1,1′,2′,5,6,7,8,9,10,11,13a,14,14a,15,16,16a-hexadecahydrospiro[cyclopropa[e]pyrrolo[1,2-a][1,4]diazacyclopentadecine-2,3′-pyrano[2,3-c]quinolin]-6-yl]carbamate]",–,–,"EC50 (HCV genotype 1b replicon; genotype 1b replicon, K+ salt): 5.66 nM; IC50 [1, 3]: 0.008 nM"
"COc1ccc2nc(C(F)(F)F)c3c(c2c1)CC[C@]1(C[C@H]2C(=O)N[C@]4(C(=O)NS(=O)(=O)C5(C)CC5)C[C@H]4/C=C\CCCCC[C@H](NC(=O)O[C@@H]4C[C@@H]5C[C@@H]5C4)C(=O)N2C1)O3 [Example 513, (1R,3r,5S)-bicyclo[3.1.0]hex-3-yl [(2R,6S,12Z,13aS,14aR,16aS)-9′-methoxy-14a-{[(1-methylcyclopropyl)sulfonyl]carbamoyl}-5,16-dioxo-5′-(trifluoromethyl)-1,1′,2′,5,6,7,8,9,10,11,13a,14,14a,15,16,16a-hexadecahydrospiro[cyclopropa[e]pyrrolo[1,2-a][1,4]diazacyclopentadecine-2,3′-pyrano[2,3-c]quinolin]-6-yl]carbamate]",–,–,"EC50 (HCV genotype 1b replicon; HCV replicon, genotype 1b): 1.42 nM; IC50 ([1]; IC50 [gt-1b], NS3/4A protease TRF assay, genotype 1b enzyme 0.2 nM): 0.01 nM"
"Cc1ccc2nc(C)c3c(c2c1)CC[C@]1(C[C@H]2C(=O)N[C@]4(C(=O)NS(=O)(=O)C5CC5)C[C@H]4/C=C\CCCCC[C@H](NC(=O)OC(C)(C)C)C(=O)N2C1)O3 [Example 87, tert-butyl {(2R,6S,12Z,13aS,14aR,16aS)-14a-[(cyclopropylsulfonyl)carbamoyl]-5′,9′-dimethyl-5,16-dioxo-1,1′,2′,5,6,7,8,9,10,11,13a,14,14a,15,16,16a-hexadecahydrospiro[cyclopropa[e]pyrrolo[1,2-a][1,4]diazacyclopentadecine-2,3′-pyrano[2,3-c]quinolin]-6-yl}carbamate]",5.87,0.01,–
"Cc1nc2cc(Cl)ccc2c2c1O[C@]1(CC2)C[C@H]2C(=O)N[C@]3(C(=O)NS(=O)(=O)C4(C)CC4)C[C@H]3/C=C\CCCCC[C@H](NC(=O)OC3(C)CC3)C(=O)N2C1 [Example 236, 1-methylcyclopropyl [(2R,6S,12Z,13aS,14aR,16aS)-8′-chloro-5′-methyl-14a-{[(1-methylcyclopropyl)sulfonyl]carbamoyl}-5,16-dioxo-1,1′,2′,5,6,7,8,9,10,11,13a,14,14a,15,16,16a-hexadecahydrospiro[cyclopropa[e]pyrrolo[1,2-a][1,4]diazacyclopentadecine-2,3′-pyrano[2,3-c]quinolin]-6-yl]carbamate]",–,–,"EC50 (HCV genotype 1b replicon; genotype 1b replicon, K+ salt): 7.24 nM; IC50 [1, 3]: 0.056 nM"
